The values below are quoted from earlier work in PMC9943811 (Diabetes Therapy, 2022).

The conditions of the data set: ref [19], [20].

For the compound `N[C@@H](CC(=O)N1CCn2c(nnc2C(F)(F)F)C1)Cc1cc(F)c(F)cc1F` [sitagliptin], the terminal half-life result is “around 12 h”.
